Assay results from patent US7601734B2, “Cyclic amine compound” (Taisho Pharmaceutical Co., Ltd., priority 2004, dated 2009).
Read-outs that look alike come from different tables or passages of the source.

How the values were obtained:
[1] = molecular target: T1, human α2C-adrenoceptor (Homo sapiens, UniProt P18825); experiment: α2C-Adrenoceptor binding experiment ([3H] MK912 displacement, crude membrane sample)
T1 construct: expressed in transfected cells; host or cells: COS-1 cells
T1 sequence (P18825 1-462): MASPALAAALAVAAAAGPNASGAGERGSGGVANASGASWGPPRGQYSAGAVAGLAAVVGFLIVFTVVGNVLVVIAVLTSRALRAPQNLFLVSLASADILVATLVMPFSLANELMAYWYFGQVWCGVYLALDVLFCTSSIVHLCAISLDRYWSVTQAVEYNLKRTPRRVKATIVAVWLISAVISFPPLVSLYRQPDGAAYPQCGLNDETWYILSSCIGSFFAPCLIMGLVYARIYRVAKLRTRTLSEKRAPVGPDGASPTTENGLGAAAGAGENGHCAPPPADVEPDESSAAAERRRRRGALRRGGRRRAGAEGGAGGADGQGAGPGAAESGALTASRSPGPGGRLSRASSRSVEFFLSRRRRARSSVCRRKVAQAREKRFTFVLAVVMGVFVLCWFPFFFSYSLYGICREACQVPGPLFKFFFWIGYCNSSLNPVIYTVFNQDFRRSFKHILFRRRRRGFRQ
Method: The subject experiment was performed by a method improved from the method described in Uhlen et al., Journal of Pharmacology and Experimental Therapeutics (1994), 1558-1565. Briefly, human α2C-adrenoceptor expressing COS-1 cells were homogenized with 50 mM Tris-HCl buffer (pH 7.4) containing 12.5 mM magnesium hydrochloride and 1 mM EDTA. The resultant homogenate was centrifuged at 48,000×g for 20 minutes at 4° C. twice. The precipitate was suspended in 50 mM Tris-HCl buffer (pH 7.4) containing 12.5 mM magnesium hydrochloride and 1 mM EDTA to give a protein concentration of 150 μg/ml. This suspension was used in binding experiments as a crude membrane sample. The crude membrane sample (0.5 ml, 75 μg protein) was reacted with [^3H] MK912 (final concentration 0.08 nM) at 25° C. for 60 minutes. After completion of the reaction, the reaction mixture was vacuum filtered on GF/B glass fiber filter pre-immersed in 0.3% polyethyleneimine for 2 hours, using a cell harvester for binding experiments. The filter was placed in a glass vial containing 8 ml of Aquasol 2, and the radioactivity thereof was measured with a liquid scintillation counter. The amount of binding in the presence of 10 μM rauwolcine was taken as non-specific binding. The value obtained by subtracting non-specific binding from the total binding in the absence of 10 μM rauwolcine was taken as specific binding. Each of the test compounds was dissolved in 100% dimethyl sulfoxide solution and added to the membrane sample simultaneously with [^3H] MK912. IC50 values were calculated from inhibition curves at concentrations from 0.1 nM to 1 μM.

[2] = molecular target: T2, human α2A-adrenoceptor (Homo sapiens, UniProt P08913); experiment: α2A-Adrenoceptor binding experiment ([3H] MK912 displacement, crude membrane sample); settings: membranes of human α2A-adrenoceptor expressing COS-7 cells; [3H] MK912 1 nM; 25° C., 60 minutes; read-out: Ability to Inhibit (IC50, nM) α 2A
T2 construct: expressed in transfected cells; host or cells: COS-7 cells
T2 sequence (P08913 1-465): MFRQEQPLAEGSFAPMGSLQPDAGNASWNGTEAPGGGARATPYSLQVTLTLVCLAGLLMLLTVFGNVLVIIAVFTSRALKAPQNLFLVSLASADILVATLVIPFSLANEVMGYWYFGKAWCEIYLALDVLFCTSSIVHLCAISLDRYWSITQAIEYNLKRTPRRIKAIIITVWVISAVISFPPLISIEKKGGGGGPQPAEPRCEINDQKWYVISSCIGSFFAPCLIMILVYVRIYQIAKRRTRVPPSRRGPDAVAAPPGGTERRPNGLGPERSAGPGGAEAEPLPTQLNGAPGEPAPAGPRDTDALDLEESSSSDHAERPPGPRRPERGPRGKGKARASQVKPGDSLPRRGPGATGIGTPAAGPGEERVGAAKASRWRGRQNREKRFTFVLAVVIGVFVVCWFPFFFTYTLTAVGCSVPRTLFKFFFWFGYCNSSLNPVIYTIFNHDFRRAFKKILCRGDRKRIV
Method: The subject experiment was performed by a method improved from the method described in Uhlen et al., Journal of Pharmacology and Experimental Therapeutics (1994), 1558-1565. Briefly, human α2A-adrenoceptor expressing COS-7 cells were homogenized with 50 mM Tris-HCl buffer (pH 7.4) containing 12.5 mM magnesium hydrochloride and 1 mM EDTA. The resultant homogenate was centrifuged at 48,000×g for 20 minutes at 4° C. twice. The precipitate was suspended in 50 mM Tris-HCl buffer (pH 7.4) containing 12.5 mM magnesium hydrochloride and 1 mM EDTA to give a protein concentration of 200 μg/ml. This suspension was used in binding experiments as a crude membrane sample. The crude membrane sample (0.1 ml, 20 μg protein, reaction volume 0.2 ml) was reacted with [^3H] MK912 (final concentration 1 nM) at 25° C. for 60 minutes. After completion of the reaction, the reaction mixture was vacuum filtered on GF/C glass fiber plate pre-immersed in 0.3% polyethyleneimine for 2 hours, using a Filtermate Harvester. Microscinti-0 (40 μl) was added to the plate, and the radioactivity was measured with Top Count (PerkinElmer). The amount of binding in the presence of 10 μM rauwolcine was taken as non-specific binding. The value obtained by subtracting non-specific binding from the total binding in the absence of 10 μM rauwolcine was taken as specific binding. Each of the test compounds was dissolved in 100% DMSO solution and added to the membrane sample simultaneously with [^3H] MK912. IC50 values were calculated from inhibition curves at concentrations from 1 nM to 10 μM.

[3] = membranes of human α2C-adrenoceptor expressing COS-1 cells, [3H] MK912 0.08 nM, 25° C., 60 minutes, read-out: Ability to Inhibit (IC50, nM) α 2C

SMILES | IC50 [1, 3] [nM] | IC50 [2] [nM] | melting point [°C] | IC50 [1] [nM]
N#CC(CCCN1CCc2[nH]c3ccccc3c2C1)(c1ccccc1)c1ccccc1 [Compound 8, 2,2-diphenyl-5-(1,3,4,5-tetrahydro-2H-pyrido[4,3-b]indole-2-yl)-pentanenitrile] | 121 | 1290 |  | 
COC(=O)C(CCCN1CCc2oc3ccccc3c2C1)(c1ccc(F)cc1)c1ccc(F)cc1 [Compound 1, Methyl 5-(3,4-dihydro[1]benzofuro[3,2-c]pyridine-2(1H)-yl)-2,2-bis(4-fluorophenyl)pentanoate] | 28 | 416 |  | 
c1ccc(C(CCCN2CCc3oc4ccccc4c3C2)c2ccccc2)cc1 [Compound 15, 2-(4,4-diphenylbutyl)-1,2,3,4-tetrahydro-[1]-benzofuro[3,2-C]pyridine] | 10 | 243 |  | 
N#CC(CCCN1CCc2oc3ccc(Cl)cc3c2C1)(c1ccccc1)c1ccccc1 [Compound 11, 5-(8-chloro-3,4-dihydro-[1]-benzofuro[3,2-C]pyridine-2(1H)-yl)-2,2-diphenyl-pentanenitrile] | 203 | 1720 |  | 
COc1ccc2oc3c(c2c1)CN(CCCC(C#N)(c1ccccc1)c1ccccc1)CC3 [Compound 13, 5-(8-methoxy-3,4-dihydro-[1]-benzofuro[3,2-C]pyridine-2(1H)-yl)-2,2-diphenyl-pentanenitrile] | 53 | 563 |  | 
N#CC(CCCN1CCc2sc3ccccc3c2C1)(c1ccccc1)c1ccccc1 [Compound 7, 5-(3,4-dihydro-[1]-benzothieno[3,2-C]pyridine-2(1H)-yl)-2,2-diphenyl-pentanenitrile] | 299 | 1480 |  | 
Cl.NC(=O)C(CCCN1CCc2oc3ccccc3c2C1)(c1ccc(F)cc1)c1ccc(F)cc1 [Compound 3, 5-(3,4-dihydro[1]benzofuro[3,2-c]pyridine-2(1H)-yl)-2,2-bis(4-fluorophenyl)pentanoic acid amide] | 5.8 | 204 | 174 to 179.5 | 
Cl.N#CC(CCCN1CCc2oc3ccccc3c2C1)(c1ccc(F)cc1)c1ccc(F)cc1 [Compound 4, 5-(3,4-dihydro[1]benzofuro[3,2-c]pyridine-2(1H)-yl)-2,2-bis(4-fluorophenyl)pentanenitrile] | 9.3 | 136 | 113.5 to 120.5 | 
Cl.N#CC(CCCN1CCc2oc3ccccc3c2C1)(c1ccccc1)c1ccccc1 [Compound 5, 5-(3,4-dihydro[1]benzofuro[3,2-c]pyridine-2(1H)-yl)-2,2-diphenylpentanenitrile] | 5.7 | 139 | 195 to 199 | 
Cn1c2c(c3ccccc31)CN(CCCC(C#N)(c1ccccc1)c1ccccc1)CC2 [Compound 9, 5-(5-methyl-1,3,4,5-tetrahydro-2H-pyrido[4,3-b]indole-2-yl)-2,2-diphenyl-pentanenitrile] | 280 | 4830 |  | 
N#CC1(CCCN2CCc3oc4ccccc4c3C2)c2ccccc2Oc2ccccc21 [Compound 16, 9-[3-(3,4-dihydro-[1]-benzofuro[3,2-C]pyridine-2(1H)-yl)-propyl]-9H-xanthene-carbonitrile] | 12 | 102 |  | 
O=C(O)C(CCCN1CCc2oc3ccccc3c2C1)(c1ccc(F)cc1)c1ccc(F)cc1 [Compound 2, 5-(3,4-dihydro[1]benzofuro[3,2-c]pyridine-2(1H)-yl)-2,2-bis(4-fluorophenyl)pentanoic acid] | 142 | 935 |  | 
N#CC(CCCN1CCc2oc3ccc(F)cc3c2C1)(c1ccccc1)c1ccccc1 [Compound 10, 5-(8-fluoro-3,4-dihydro-[1]-benzofuro[3,2-C]pyridine-2(1H)-yl)-2,2-diphenyl-pentanenitrile] |  | 504 |  | 28
